Measurements taken from patent US7528226B2, “TGFβ1-inhibitor peptides” (Rojecto de Biomedicina Cima S.L., priority 1998, dated 2009).
No end group written: not given here.

Target: T1, TGFβ1 (Homo sapiens, UniProt P01137)
T1 construct: the mature TGFβ1 is released by another cut; purchased R&D Systems Europe Ltd., Abingdon, UK
Format: cell-based
Settings: TGFβ1 200 pg/ml
Method: A line derived from mink pulmonary epithelium, MV-1-Lu, was used (CCL-64, American Type Cell Culture, Virginia, USA). The cells were grown in 162 cm^2 culture flasks (Costar Corporation, Cambridge, USA) in a stove at 37° C. and 5% CO2, until subconfluence was attained. A complete medium was used: RPMI 1640 with L-glutamine (GibcoBRL, Life Technologies Ltd., Paisley, Scotland) supplemented with 5% of foetal calf serum (FCS, Biological Industries, Kibbutz Beit Haemek, Israel), 10 mM HEPES (1M HEPES Buffer, Bio-Whittaker, Verviers, Belgium) and antibiotics (100 U/ml penicillin and 100 μ/ml streptomycin).
The MV-1-Lu cells grown as indicated above were removed from the bottom of the culture flasks using 5 ml of trypsin-EDTA (Biological Industries, Kibbutz Beit Haemek, Israel), resuspended in complete medium and centrifuged at 1500 rev/min for 8 minutes. After centrifugation the cells were resuspended in complete medium to a concentration of 50,000 cells/ml. For conducting the test, 10 ml of the cell suspension were taken and dispensed in 96-well, flat-bottom culture plates (Costar Corporation, Cambridge, USA), adding 100 μl/well, and were incubated overnight at 37° C. and 5% CO2, which permits adhesion of the cells to the bottom of the wells. […] The final concentration of FCS in the well was 2.5%. After 24 hours of incubation, 1 μCi of tritiated thymidine was added per well (25 Ci/mmol [methyl-^3H]-thymidine, Amersham Life Science, Buckinghamshire, UK) with incubation for a further 12 hours (Grubeck-Loebenstein B. et al. (1989) J. Clin. Invest. 83:764-770; Brennan F M et al. (1990) Clin. Exp. Immunol. 81:278-285).
At the end of the incubation periods the cells were removed from the bottom of the wells with trypsin-EDTA and were collected using a manual harvester (Titertek cell harvester, Skatron Instruments Inc., Sterling, USA) which ruptures the cells, collecting the DNA in nitrocellulose filters (Filter MAT 11731, Skatron Instruments Inc., Sterling, USA) where it is fixed. The filters were placed individually in 5 ml polypropylene tubes to which 4 ml of scintillation fluid was added (Biogreen-11, Reactivos Scharlau S. A., Barcelona, Spain). The activity of each tube was quantified for 90 seconds in a β LKB scintillation counter (Beta plate system, LKB, Uppsala, Sweden).
TGFβ1 is a cytokine that is able to inhibit the growth in vitro of the MV-1-Lu cell line (Grubeck-Loebenstein B. et al. (1989) J. Clin. Invest. 83:764-770; Brennan F M et al. (1990) Clin. Exp. Immunol. 81:278-285), therefore this line was used for testing the blocking effect of peptides on TGFβ1. After different combinations of media, cells and thymidine, we studied the effect of different concentrations of TGFβ1 on incorporation of [methyl-^3H]thymidine by MV-1-Lu cells in culture, for determining the most suitable conditions for the test. […]
The synthetic peptides that are potentially inhibitors of TGFβ1 activity, selected as indicated above in the section: selection of the peptides to be synthesized (both those derived from proteins that bind to TGFβ1 itself) were tested using the MV-1-Lu cell line. The selected peptides are soluble in buffered RPMI medium. The peptides were dissolved in buffered RPMI medium, free from foetal calf serum, and the following was used.
The peptides belonging to the sequence of the receptor, or complementary to the peaks of hydrophilicity of TGFβ1, were incubated for 30 minutes in the presence of this cytokine and were then combined with the cell culture. The peptides derived from the sequence of TGFβ1 were added to the cell culture prior to addition of TGFβ1, since they interact with the receptors of the cell surface. These incubations were effected in 100 μl of the same medium as was used for adding the cells. The active peptides permitted cell growth to a greater or lesser degree depending on its ability to inhibit TGFβ1.

T1 sequence (P01137 279-390): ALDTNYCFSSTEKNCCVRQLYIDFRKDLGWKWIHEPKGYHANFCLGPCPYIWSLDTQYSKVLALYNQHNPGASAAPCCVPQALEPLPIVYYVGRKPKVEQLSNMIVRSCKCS

- inhibitory activity of TGFβ1 (in words) (peptide 200 μg/ml, MV-1-Lu cells): had proved active
Sequence: TSLDASIIWAMMQN [P144, ThrSerLeuAspAlaSerIleIleTrpAlaMetMetGlnAsn]
- dependence of the inhibitory activity on the peptide concentration (dose-response test): activity of the peptide decreases with the decrease in the concentration
